Results reported in article PMC7822874, “Chemoprotective antimalarials identified through quantitative high-throughput screening of Plasmodium blood and liver stage parasites” (Scientific Reports, 2021).
Like-named read-outs stand apart in the source and are kept apart here.

Assays:
in vitro = conditions: human
[1] = test system: P. berghei-ANKA-GFP-LucCON liver stage parasites in HepG2-A16-CD81EGFP cells; assay: P. berghei liver stage Pb-Luc assay, Method 1 (UCSD, 1536-well); assay type: cell-based, Plasmodium berghei; conditions: for activity at 1 µM / activity at 3 µM: 48 h, average of 2 wells on a 1536 well plate; for activity at 1 µM: 1 uM (compounds provided at 10 mM); for activity at 3 µM: 3 uM (compounds provided at 10 mM)
[2] = test system: Plasmodium falciparum Dd2 asexual blood stage parasites; assay: microbe, parasite or virus in culture; design: species or system Plasmodium falciparum Dd2 in human erythrocytes; single determination (one 11-point concentration-response curve); conditions: Plasmodium falciparum, DD2, Erythrocyte, 72 h
[3] = HepG2-A16-CD81EGFP cells, uninfected
[4] = Plasmodium berghei, column 11, read-out: Pb-Luc (P. berghei liver stage), % of control, lower concentration, first repeat
[5] = Plasmodium berghei, column 12, read-out: Pb-Luc (P. berghei liver stage), % of control, lower concentration, second repeat
[6] = Plasmodium berghei, column 8, read-out: Pb-Luc (P. berghei liver stage), % of control, higher concentration, first repeat
[7] = Plasmodium berghei, column 9, read-out: Pb-Luc (P. berghei liver stage), % of control, higher concentration, second repeat

CCOc1cc(C2NCc3ccccc3-n3cccc32)ccc1O (centres unmarked) [MLS000047991-01]
viability at 48 h, 1 µM (in vitro): 97%
viability at 48 h, 3 µM (in vitro): 95%

CCCN(CCC)C(=O)Cn1ccc(=N)c2ccccc21 [MLS000047676-01]
viability at 48 h, 1 µM (in vitro; [3]): 95%
viability at 48 h, 3 µM (in vitro; [3]): 87%

CCCCN(C)[S+](=O)([O-])c1ccc(C(=O)Nc2ccc(-c3nc4ccc(C)cc4s3)cc2)cc1 [NCGC00134689-01]
viability at 66 h (in vitro; [3]): 103%

CCSc1nnc(SCC(=O)c2c(N)n(C)c(=O)n(C)c2=O)s1 [MLS002169255-01]
viability at 48 h, 1 µM (in vitro; [3]): 93%
viability at 48 h, 3 µM (in vitro; [3]): 88%

CC(C)c1ccc(O)c(CN2CCN(c3ccccc3)CC2)c1 [MLS000084718-01]
activity at 1 µM [1, 4]: 105%
activity at 1 µM [1, 5]: 80%
activity at 3 µM [1, 6]: 97%
activity at 3 µM [1, 7]: 96%
AC50 [2]: 1.33 µM

Cc1cccc(Cl)c1/N=C(\S)N1CCN(c2ccc([N+](=O)[O-])cn2)CC1 [MLS000833563-01]
viability at 48 h, 1 µM (in vitro; [3]): 95%
viability at 48 h, 3 µM (in vitro; [3]): 93%

Cc1ccc(C(=O)c2oc3ccccc3c2NC(=O)c2cc(-c3cc(C)ccc3O)[nH]n2)cc1 [MLS000331963-01]
viability at 48 h, 1 µM (in vitro; [3]): 103%
viability at 48 h, 3 µM (in vitro; [3]): 102%

CN(C(=O)c1ccc(NC(=O)Cc2cccc(NC(=O)C3CCCN(C(=O)CCc4ccccc4)C3)c2)cc1)C1CCCC1 (centres unmarked) [MLS002402746-01]
viability at 48 h (in vitro; [3]): 104%
viability at 48 h, 1 µM (in vitro; [3]): 104%

Cc1nn(-c2ccc([N+](=O)[O-])cc2)c2c1C(c1cccc(Br)c1)N1C(=N2)C(=O)Nc2ccccc21 (centres unmarked) [MLS000331784-01]
viability at 48 h, 1 µM (in vitro; [3]): 105%
viability at 48 h, 3 µM (in vitro; [3]): 102%

COc1ccccc1-c1nnc2sc(COc3ccc(F)cc3)nn12 [MLS000042616-01]
viability at 48 h (in vitro; [3]): 102%
viability at 48 h, 1 µM (in vitro; [3]): 102%

CCOC(=O)C1=C(C)NC2=C(C(=O)CCC2)C1c1cn(Cc2ccc(Cl)cc2Cl)nc1-c1ccccc1 (centres unmarked) [MLS000324811-01]
viability at 48 h, 1 µM (in vitro; [3]): 106%
viability at 48 h, 3 µM (in vitro; [3]): 96%

OC(CNCCNc1ncccc1C(F)(F)F)Cn1ccc2ccccc21 (centres unmarked) [MLS000833573-01]
viability at 48 h, 1 µM (in vitro; [3]): 106%
viability at 48 h, 3 µM (in vitro; [3]): 96%

CN(C)S(=O)(=O)Oc1ccsc1C(=O)Nc1cccc(Cl)c1 [MLS000327935-01]
viability (in vitro): 102%

Cc1ccc(CN(C)C(=O)c2cc(COc3ccc(F)cc3Cl)on2)o1 [MLS000734222-01]
viability at 66 h (in vitro; [3]): 101%

CCCC(=O)Nc1sc2c(c1C(=O)Nc1ccccn1)CCCC2 [MLS000765104-01]
viability at 66 h (in vitro; [3]): 101%

COc1cccc(OCCn2cc(C(=O)c3ccco3)c3ccccc32)c1 [MLS000050800-01]
activity at 1 µM [1, 4]: 134%
activity at 1 µM [1, 5]: 132%
activity at 3 µM [1, 6]: 134%
activity at 3 µM [1, 7]: 113%

NS(=O)(=O)c1cccc(NC(=O)CSc2nn(-c3ccccc3)c(=S)s2)c1 [MLS000339501-01]
viability at 48 h, 1 µM (in vitro; [3]): 105%
viability at 48 h, 3 µM (in vitro; [3]): 100%

CCOC(=O)N1CCc2c(sc3nc4n(c(=O)c23)N=C(c2ccc(OC)cc2)CS4)C1 [MLS000859689-01]
viability at 48 h, 1 µM (in vitro; [3]): 99%
viability at 48 h, 3 µM (in vitro; [3]): 96%

O=C(Cc1c[nH]c2ncc(-c3ccc(Cl)cc3)cc12)NCc1cccnc1 [NCGC00412438-01]
Max Resp (signal direction of the dose response) ([1]; Method 1, Decrease = decreasing P. berghei viability with dose, Increase = increasing signal, Inactive = no dose response): Decrease
AC50 ([1]; Method 1, Hill fit, 50% of maximum activity response, read-out: AC50): 2 µM
Log AC50 (M) ([1]; Method 1, log10 of molar AC50 from Hill fit): -5.700 M
AC50 ([1]; Plasmodium berghei, Method 1, Hill fit, 50% of maximum activity response, read-out: AC50): 1.26 µM
AC50 ([1]; Plasmodium berghei, Method 1, log10 of molar AC50 from Hill fit, read-out: Log AC50 (converted)): 1.26 µM
AC50 ([2]; read-out: AC50): 1.72 µM

CCOC(=O)c1nnn(-c2nonc2N)c1-c1ccc(C)cc1 [MLS000519435-01]
activity at 1 µM [1, 4]: 122%
activity at 1 µM [1, 5]: 101%
activity at 3 µM [1, 6]: 135%
activity at 3 µM [1, 7]: 119%
AC50 ([2]; read-out: AC50): 5.31 µM

Oc1c(Br)cc(Br)cc1CN1CCN(Cc2ccccc2)CC1 [MLS000530313-01]
activity at 1 µM [1, 4]: 129%
activity at 1 µM [1, 5]: 112%
activity at 3 µM [1, 6]: 102%
activity at 3 µM [1, 7]: 112%
AC50 ([2]; read-out: AC50): 1.06 µM

Cc1nc2c(n1C1CCCCC1)C(=O)c1ccccc1C2=O [MLS000564113-01]
activity at 1 µM [1, 4]: 95%
activity at 1 µM [1, 5]: 107%
activity at 3 µM [1, 6]: 85%
activity at 3 µM [1, 7]: 94%

CC(C)(C)c1ccc(C(=O)N2CCCC(c3nc(O)c4nnn(Cc5cccc(F)c5)c4n3)C2)cc1 (centres unmarked) [NCGC00116087-01]
AC50 ([2]; read-out: AC50): 16.8 µM

O=c1c2c([nH]c3ccccc13)CCCC2 [MLS000551004-01]
AC50 ([2]; read-out: AC50): 6.68 µM

COc1ccc2c(CNCc3ccccc3OC)c(C(=O)O)n(Cc3ccc(F)cc3Cl)c2c1 [NCGC00122363-01]
AC50 ([2]; read-out: AC50): 15 µM

C=C[C@]1(C)C[C@@H](OC(=O)CSC(C)(C)CNC(=O)[C@H](N)C(C)C)[C@]2(C)[C@H](C)CC[C@]3(CCC(=O)[C@H]32)[C@@H](C)[C@@H]1O [NCGC00167968-01]
AC50 ([2]; read-out: AC50): 8.41 µM

O=C(c1n[nH]c2ccccc12)N1CCCC1c1nc(CCOCC2CCOCC2)no1 (centres unmarked) [NCGC00460318-01]
AC50 ([2]; read-out: AC50): 9.44 µM

CCC1=C(C(=O)OC)C(c2ccccc2OC)N2C(CC(=O)NCC3CCCO3)=CSC2=N1 (centres unmarked) [NCGC00473341-01]
AC50 ([2]; read-out: AC50): 15 µM

O=C(c1cccs1)N1CCC(O)(c2ccccc2)[C@H](N2CCCC2)C1 (some centres unmarked) [NCGC00442580-01]
AC50 ([2]; read-out: AC50): 9.44 µM

Cc1ccc2c(c1)c1c3n2CCCN(Cc2ccccc2)C3CCC1 (centres unmarked) [MLS000525489-01]
AC50 ([2]; read-out: AC50): 4.22 µM

CC(C)C[C@@H](NC(=O)[C@@H](O)[C@H](N)Cc1ccccc1)C(=O)O [NCGC00093685-01]
AC50 ([2]; read-out: AC50): 2.99 µM

Cc1ccc(C)c(CN2C(=O)c3ccccc3[S+](=O)([O-])c3ccc(C(=O)NCCc4ccc(Cl)cc4)cc32)c1 [NCGC00109793-01]
AC50 ([2]; read-out: AC50): 7.5 µM

CCN(CC)c1cc(C)c2cc(NC(=O)c3ccc(Br)o3)ccc2n1 [MLS000519820-01]
AC50 ([2]; read-out: AC50): 6.68 µM

O=C1c2cc(N3CCOCC3)nc(-c3ccccc3)c2CN1Cc1ccccc1 [NCGC00419273-01]
AC50 ([2]; read-out: AC50): 21.7 µM

CCCOc1cccc(C2c3c(oc4cc(C)c(C)cc4c3=O)C(=O)N2CCCN2CCOCC2)c1 (centres unmarked) [NCGC00101917-01]
AC50 ([2]; read-out: AC50): 13.3 µM

COc1cc(-c2nc(-c3ccccc3)c(-c3ccc(Br)cc3)[nH]2)cc(OC)c1O [NCGC00100017-01]
AC50 ([2]; read-out: AC50): 2.11 µM

Oc1ccccc1CN[C@H]1[C@H](O)[C@@H](N2CCC(Cc3ccccc3)CC2)[C@@H]2OC[C@H]1O2 [NCGC00400924-01]
AC50 ([2]; read-out: AC50): 3.44 µM

Cc1ccc(-c2noc(-c3ccccc3NC(=O)C3CC(=O)N(c4ccc(C)cc4)C3)n2)cc1 (centres unmarked) [NCGC00119552-01]
AC50 ([2]; read-out: AC50): 4.22 µM

CC(=O)Nc1ccc2nnc(-c3ccc(C(=O)N4CCCCCC4)cc3)n2c1 [NCGC00429830-01]
AC50 ([2]; read-out: AC50): 8.41 µM

COc1cccc(C(=O)N2CCC(N3C[C@H](O)C[C@H]3C(=O)N3CC=C(c4ccccc4)CC3)CC2)c1 [NCGC00460071-01]
AC50 ([2]; read-out: AC50): 9.44 µM

CC(C)OCCCNc1sc([S+](=O)([O-])c2ccccc2)nc1[S+](=O)([O-])c1ccc(Cl)cc1 [NCGC00116822-01]
AC50 ([2]; read-out: AC50): 0.266 µM

Cc1cc(NCc2ccco2)nc2cc(O)ccc12 [MLS000118315-01]
AC50 ([2]; read-out: AC50): 6.68 µM

CCCOC(=O)c1ccc(-c2c(C)noc2-c2ccc(OC)cc2O)o1 [MLS000097856-01]
AC50 ([2]; read-out: AC50): 1.88 µM

OCc1ccc(CN2CCCC(CCc3c(F)cccc3F)C2)o1 (centres unmarked) [NCGC00426759-01]
AC50 ([2]; read-out: AC50): 4.22 µM

Nc1ccc2oc(-c3ccc4[nH]cnc4c3)nc2c1 [MLS000121646-01]
AC50 ([2]; read-out: AC50): 13.3 µM

CCCc1nnc(C[C@@H]2C[C@@H](C(C)C)[C@H](CN3CCC[C@H]3CO)C=C2C)o1 [NCGC00392769-01]
AC50 ([2]; read-out: AC50): 17.2 µM

COc1cc(CN2CC(=O)N(c3ccc(C)c(C)c3)C2=S)cc(OC)c1OC [MLS000583901-01]
AC50 ([2]; read-out: AC50): 15 µM

O=C(CCC1CCCN(Cc2cccn2-c2cccnc2)C1)Nc1ccccc1F (centres unmarked) [NCGC00427855-01]
AC50 ([2]; read-out: AC50): 6.68 µM
